Reference: ChEMBL document CHEMBL1201862, “PubChem BioAssay data set” (2004)
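Cultured in 96-well plates, cells were exposed to test compound for 48 hours across five concentrations. Abbreviation: GI50, concentration required for 50% inhibition of growth.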 The source made the active and inactive calls. Rule as the data show it: active = GI50 up to about 1.1 µM and inactive = higher.

Assays:
Test in all cases: NCI anticancer screen, dose series, 48 h
DMS-114 = test system: DMS-114
NCI-H522 = test system: NCI-H522
MCF7 = test system: MCF7
OVCAR-3 = test system: OVCAR-3
SF-295 = test system: SF-295
SK-MEL-5 = test system: SK-MEL-5
KM12 = test system: KM12
CAKI-1 = test system: CAKI-1
SN12C = test system: SN12C
NCI-H460 = test system: NCI-H460
IGROV-1 = test system: IGROV-1
U-251 = test system: U-251
M14 = test system: M14
OVCAR-4 = test system: OVCAR-4
ACHN = test system: ACHN
Hs-578T = test system: Hs-578T
DU-145 = test system: DU-145
PC-3 = test system: PC-3
MDA-MB-435 = test system: MDA-MB-435
BT-549 = test system: BT-549

| SMILES | GI50 (DMS-114) | GI50 (NCI-H522) | GI50 (MCF7) | GI50 (OVCAR-3) | GI50 (SF-295) | GI50 (SK-MEL-5) | GI50 (KM12) | GI50 (CAKI-1) | GI50 (SN12C) | GI50 (NCI-H460) | GI50 (IGROV-1) | GI50 (U-251) | GI50 (M14) | GI50 (OVCAR-4) | GI50 (ACHN) | GI50 (Hs-578T) | GI50 (DU-145) | GI50 (PC-3) | GI50 (MDA-MB-435) | GI50 (BT-549) |
| --- | --- | --- | --- | --- | --- | --- | --- | --- | --- | --- | --- | --- | --- | --- | --- | --- | --- | --- | --- | --- |
| Cn1sc2ccccc2c1=S | 2.58 µM (inactive) | 3.16 µM (inactive) | 2.64 µM (inactive) | 4.2 µM (inactive) | 12.6 µM (inactive) | 12.4 µM (inactive) | 12 µM (inactive) | 11.7 µM (inactive) | 6.75 µM (inactive) | 13.8 µM (inactive) | 13 µM (inactive) | 4.01 µM (inactive) | 10.4 µM (inactive) | 8.2 µM (inactive) | 13.8 µM (inactive) | – | – | – | – | – |
| CCCCOC(=O)NC(=O)c1cn(CCCOC(=O)CCCCCCCCC(=O)OCCCn2cc(C(=O)NC(=O)OCCCC)c(=O)n(C)c2=O)c(=O)n(C)c1=O | > 100 µM (inactive) | > 100 µM (inactive) | – | > 100 µM (inactive) | > 100 µM (inactive) | > 100 µM (inactive) | > 100 µM (inactive) | > 100 µM (inactive) | > 100 µM (inactive) | > 100 µM (inactive) | > 100 µM (inactive) | > 100 µM (inactive) | > 100 µM (inactive) | > 100 µM (inactive) | > 100 µM (inactive) | – | – | – | – | – |
| N=C(N)NCCCC(NCc1c2ccccc2[n+]([O-])c2ccccc12)C(=O)O (configuration not stated) | 26.4 µM (inactive) | 27 µM (inactive) | – | > 100 µM (inactive) | > 100 µM (inactive) | 36.4 µM (inactive) | 50.8 µM (inactive) | 60.8 µM (inactive) | 52.7 µM (inactive) | 41.6 µM (inactive) | 71.9 µM (inactive) | 77.4 µM (inactive) | 85.5 µM (inactive) | 31.2 µM (inactive) | 42.7 µM (inactive) | – | – | – | – | – |
| Cc1cc(NS(=O)(=O)c2ccc(NC(=O)c3cccn4c(=O)c5ccccc5nc34)cc2)no1 | > 100 µM (inactive) | > 100 µM (inactive) | – | > 100 µM (inactive) | > 100 µM (inactive) | > 100 µM (inactive) | > 100 µM (inactive) | > 100 µM (inactive) | > 100 µM (inactive) | > 100 µM (inactive) | > 100 µM (inactive) | > 100 µM (inactive) | > 100 µM (inactive) | > 100 µM (inactive) | > 100 µM (inactive) | – | – | – | – | – |
| Cc1cc(=O)oc2c(C3=NN(C=O)C(c4ccccc4)C3)c(O)ccc12 (configuration not stated) | > 100 µM (inactive) | 54 µM (inactive) | > 50.5 µM (inactive) | > 71.3 µM (inactive) | 10 µM (inactive) | 56.2 µM (inactive) | > 100 µM (inactive) | > 72.1 µM (inactive) | 90.2 µM (inactive) | 73.3 µM (inactive) | 70 µM (inactive) | 32.7 µM (inactive) | 51.9 µM (inactive) | > 64.1 µM (inactive) | 14.8 µM (inactive) | 31.2 µM (inactive) | > 100 µM (inactive) | > 74.1 µM (inactive) | > 65.9 µM (inactive) | 65.6 µM (inactive) |
| CCN(CCO)CCNc1ccc(C)c2sc3ccccc3c(=O)c12 | 7.67 µM (inactive) | 4.89 µM (inactive) | 1.8 µM (inactive) | 10.2 µM (inactive) | 3.82 µM (inactive) | 2.59 µM (inactive) | 3.68 µM (inactive) | 4.73 µM (inactive) | 5.24 µM (inactive) | 1.73 µM (inactive) | 4.2 µM (inactive) | 3.69 µM (inactive) | 1.78 µM (inactive) | 7.8 µM (inactive) | 4.26 µM (inactive) | 2.25 µM (inactive) | 10.2 µM (inactive) | 3.31 µM (inactive) | 1.96 µM (inactive) | 13.4 µM (inactive) |
| CCOC(=O)C(C)Sc1nnc(COc2ccccc2OC)n1-c1ccccc1 (configuration not stated) | 14.1 µM (inactive) | 42 µM (inactive) | – | > 100 µM (inactive) | > 100 µM (inactive) | > 100 µM (inactive) | > 100 µM (inactive) | > 100 µM (inactive) | > 100 µM (inactive) | 18.3 µM (inactive) | > 100 µM (inactive) | > 100 µM (inactive) | > 100 µM (inactive) | > 100 µM (inactive) | > 100 µM (inactive) | – | – | – | – | – |
| CCOC(OCC)(OCC)C(Br)CC (configuration not stated) | 12.5 µM (inactive) | > 100 µM (inactive) | – | > 100 µM (inactive) | > 100 µM (inactive) | > 100 µM (inactive) | > 100 µM (inactive) | > 100 µM (inactive) | 64.9 µM (inactive) | > 100 µM (inactive) | > 100 µM (inactive) | > 100 µM (inactive) | > 100 µM (inactive) | > 100 µM (inactive) | > 100 µM (inactive) | – | – | – | – | – |
| CCCNC(=O)c1cc2ccccc2cc1C(=O)OC | > 100 µM (inactive) | > 100 µM (inactive) | – | > 100 µM (inactive) | > 100 µM (inactive) | > 100 µM (inactive) | > 100 µM (inactive) | > 100 µM (inactive) | > 100 µM (inactive) | > 100 µM (inactive) | > 100 µM (inactive) | > 100 µM (inactive) | > 100 µM (inactive) | > 100 µM (inactive) | 78.2 µM (inactive) | – | – | – | – | – |
| CC(=O)OCc1ncccc1C(OC(C)=O)OC(C)=O | > 100 µM (inactive) | > 100 µM (inactive) | – | > 100 µM (inactive) | > 100 µM (inactive) | > 100 µM (inactive) | > 100 µM (inactive) | > 100 µM (inactive) | > 100 µM (inactive) | > 100 µM (inactive) | > 100 µM (inactive) | > 100 µM (inactive) | > 100 µM (inactive) | > 100 µM (inactive) | > 100 µM (inactive) | – | – | – | – | – |
| CCN(CC)C1CC(O[C@H]2C[C@](O)(C(=O)CO)Cc3c(O)c4c(c(O)c32)C(=O)c2c(OC)cccc2C4=O)OC(C)C1O (some centres not stated) | 0.0647 µM (active) | < 0.0256 µM (active) | – | 0.126 µM (active) | 0.0512 µM (active) | 0.0508 µM (active) | 0.0577 µM (active) | 0.232 µM (active) | 0.045 µM (active) | < 0.019 µM (active) | 0.0859 µM (active) | 0.0509 µM (active) | 0.0982 µM (active) | 0.0546 µM (active) | 0.0316 µM (active) | – | – | – | – | – |
| Cc1nc(-c2ccccc2)cc2c1c(=O)oc1ccccc12 | > 100 µM (inactive) | > 100 µM (inactive) | – | > 100 µM (inactive) | > 100 µM (inactive) | > 100 µM (inactive) | > 100 µM (inactive) | > 100 µM (inactive) | > 100 µM (inactive) | > 100 µM (inactive) | > 100 µM (inactive) | > 100 µM (inactive) | > 100 µM (inactive) | > 100 µM (inactive) | > 100 µM (inactive) | – | – | – | – | – |
| CCN(CC)CCCC(C)Nc1c2cc(OC)cc(C)c2nc2c(C)c(Cl)ccc12 (configuration not stated) | 1.93 µM (inactive) | 1.67 µM (inactive) | – | 1.79 µM (inactive) | 2.22 µM (inactive) | 1.87 µM (inactive) | 1.64 µM (inactive) | 1.92 µM (inactive) | 1.57 µM (inactive) | 1.8 µM (inactive) | 1.67 µM (inactive) | 1.85 µM (inactive) | 2.02 µM (inactive) | 1.71 µM (inactive) | 1.69 µM (inactive) | – | – | – | – | – |
| CN(C)CCN1CCc2c([nH]c3ccccc23)C1c1cccnc1 (configuration not stated) | > 100 µM (inactive) | > 100 µM (inactive) | – | > 100 µM (inactive) | > 100 µM (inactive) | > 100 µM (inactive) | > 100 µM (inactive) | > 100 µM (inactive) | > 100 µM (inactive) | > 100 µM (inactive) | > 100 µM (inactive) | > 100 µM (inactive) | > 100 µM (inactive) | > 100 µM (inactive) | 23 µM (inactive) | – | – | – | – | – |
| CCN(CC)CCOC(c1ccccc1)c1ccccc1.CCOC(=O)Nc1ccc(S(=O)(=O)OC)cc1.CCOC(=O)Nc1ccc(S(=O)(=O)OC)cc1.Nc1ccc(C(=O)O)c(O)c1 | > 100 µM (inactive) | > 100 µM (inactive) | – | > 100 µM (inactive) | > 100 µM (inactive) | > 100 µM (inactive) | > 100 µM (inactive) | > 100 µM (inactive) | > 100 µM (inactive) | > 100 µM (inactive) | > 100 µM (inactive) | > 100 µM (inactive) | > 100 µM (inactive) | > 100 µM (inactive) | > 100 µM (inactive) | – | – | – | – | – |
| CC1CCC2[C@@H](C)COC3O[C@]4(C)CCC1C32OO4 (some centres not stated) | > 100 µM (inactive) | > 100 µM (inactive) | – | > 100 µM (inactive) | > 100 µM (inactive) | > 100 µM (inactive) | > 100 µM (inactive) | > 100 µM (inactive) | > 100 µM (inactive) | > 100 µM (inactive) | > 100 µM (inactive) | > 100 µM (inactive) | > 100 µM (inactive) | > 100 µM (inactive) | > 100 µM (inactive) | – | – | – | – | – |
